In patent publication EP1561465A2, “Methods of use of fluoroquinolone compounds against bacteria” (LG Life Sciences, Ltd., priority 1999, dated 2001):
In brackets after ≈: the same amount, converted by molar mass. Read-outs that look alike come from different tables or passages of the source.

Columns and labels:
Yersinia enterocolitica = experiment: MIC by agar dilution (NCCLS M7-A4), 288 enteropathogenic isolates, gemifloxacin and 15 other antimicrobials; assay type: cell-based; details: for MIC: Yersinia enterocolitica
Shigella spp. = experiment: as above; assay type: cell-based; details: Shigella spp. N= 21
In short: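 Agar dilution with ~10^4 cfu/spot inoculum; plates incubated aerobically at 35 °C for 24 h, except C. jejuni, held microaerophilically for 48 h. MIC taken as lowest antibiotic concentration with no visible growth.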

Campylobacter jejuni [1] = experiment: as above; details: Campylobacter jejuni
Salmonella spp. = experiment: as above; assay type: cell-based; details: for MIC: Salmonella
Aeromonas spp. = experiment: as above; assay type: cell-based; details: for MIC: Aeromonas
Hafnia alvei = experiment: as above; assay type: cell-based; details: for MIC: Hafnia alvei
Campylobacter jejuni [2] = details: Campylobacter jejuni N= 91

CO/N=C1\CN(c2nc3c(cc2F)c(=O)c(C(=O)O)cn3C2CC2)CC1CN (racemic) [Gemifloxacin (SB 265805)]
% Susceptible (Yersinia enterocolitica; Yersinia enterocolitica N= 22): 100% | MIC (mg/L) Range (Yersinia enterocolitica; Yersinia enterocolitica N= 22): ≤0.015 to 0.12 mg/L | MIC (Yersinia enterocolitica; read-out: MIC (mg/L) 50%): 0.03 mg/L (≈ 0.077 µM) | MIC (Yersinia enterocolitica; read-out: MIC (mg/L) 90%): 0.03 mg/L (≈ 0.077 µM) | % Susceptible (Shigella spp.): 100% | MIC (mg/L) Range (Shigella spp.): ≤0.015 mg/L | MIC (Shigella spp.; read-out: MIC (mg/L) 50%): ≤ 0.015 mg/L | MIC (Shigella spp.; read-out: MIC (mg/L) 90%): ≤ 0.015 mg/L | MIC (Campylobacter jejuni [1]; read-out: MIC (mg/L) 50%): 32 mg/L (≈ 82.2 µM) | MIC (Campylobacter jejuni [1]; read-out: MIC (mg/L) 90%): 128 mg/L (≈ 329 µM) | % Susceptible (Salmonella spp.; Salmonella spp. N= 106): 100% | MIC (mg/L) Range (Salmonella spp.; Salmonella spp. N= 106): ≤0.015 to 0.25 mg/L | MIC (Salmonella spp.; read-out: MIC (mg/L) 50%, Salmonella spp. N= 106): 0.03 mg/L (≈ 0.077 µM) | MIC (Salmonella spp.; read-out: MIC (mg/L) 90%, Salmonella spp. N= 106): 0.12 mg/L (≈ 0.308 µM) | % Susceptible (Aeromonas spp.; Aeromonas spp. N= 16): 100% | MIC (Aeromonas spp.; read-out: MIC (mg/L) 50%): ≤ 0.015 mg/L | MIC (Aeromonas spp.; read-out: MIC (mg/L) 90%): 0.03 mg/L (≈ 0.077 µM) | % Susceptible (Hafnia alvei; Hafnia alvei N= 32): 100% | MIC (Hafnia alvei; read-out: MIC (mg/L) 50%): 0.03 mg/L (≈ 0.077 µM) | MIC (Hafnia alvei; read-out: MIC (mg/L) 90%): 0.03 mg/L (≈ 0.077 µM) | % Susceptible (Campylobacter jejuni [2]): 32% | MIC (mg/L) Range (Campylobacter jejuni [2]): 0.03 to 128 mg/L
